Laboratory results published in patent US4906794A, “Lysosome liberation inhibitors and histamine release inhibitors” (Mitsubishi Kasei Corporation, priority 1986, dated 1990).
Each block holds one molecule with its values, some of them ahead of it.

Key:
[1] = test system: carrageenin-induced rat paw edema; assay: rat carrageenin edema test (carrageenin-induced rat paw edema); format: in vivo, Wistar male rat; settings: 6 rats; for % Inhibition (edema), 2 Hours: 2 hours after carrageenin; for % Inhibition (edema), 3 Hours: 3 hours after carrageenin
Protocol: When […] of 1% (W/V) λ-carrageenin is subcutaneously injected into the left paw of a Wistar male rat of 120 to 150 g, edema is developed in the left paw with a severity peak at 3 to 4 hours after injection--rat carrageenin edema test. It has been known that this carrageenin-induced rat paw edema is an excellent experimental model for inflammation, where histamine is involved in the development of edema immediately after injection of carrageenin, and subsequently such chemical mediators as prostaglandins, leukotrienes, bradykinin and the like are also involved.
The effect of sarcophytol-A on edema was investigated employing this experimental model: sarcophytol-A was orally administered to rats one hour before injection of carrageenin and the volume of the thus induced edema in the rat paw was measured by a volumometer 2 or 3 hours after the injection of carrageenin.
Degrees of edematization are expressed in percentages of paw volume increases after induction with respect to the paw volumes before induction: namely,
% Edematization=(B-A)/A×100
wherein A is the paw volume before induction, and B after induction. Further, inhibiting rates (%) are calculated according to the following equation: […]

mast cells [2] = settings: inhibitor of histamine release; cited from earlier work
[3] = test system: polymorphonuclear leukocytes; assay: liberation of lysosomal enzymes (β-glucuronidase) from FMLP-stimulated polymorphonuclear leukocytes; format: cell-based, male Wistar rat; settings: for Liberation (%) of lysosomal enzymes: control (0.1% DMSO) 32.0
Protocol: When 20 ml of 1% casein is intraperitoneally injected to a rat, a large number of polymorphonuclear leukocytes appear in the peritoneal cavity in 5 hours after the injection. Using these polymorphonuclear leukocytes, it is possible to measure the activity of polymorphonuclear leukocytes in an in vitro system. Thus, polymorphonuclear leukocytes are added into a test tube together with a buffer, and cytochalasin B is then added. Five minutes later, a stimulant formyl-methionyl-leucyl-phenylalanine (FMLP) is added. Then, the polymorphonuclear leukocytes liberate lysosomal enzymes. Simultaneously, some active enzymes and leukotrienes are produced. See Wei Hsueh et al., Nature, 290(23), 710-713 (11981).
Thus, polymorphonuclear leukocytes (2×10^6) were collected from the peritoneal cavity of a male Wistar rat of 250 to 350 g in body weight which had been stimulated with casein, and incubated in Hepes buffer (pH 7.4) for 5 minutes. After 5 μg of cytochalasin B was added, the mixture was incubated for an additional one minute. To the mixture, there was added an amount of a drug to be tested and, after incubation for 5 minutes, FMLP (0.1 μM) as a stimulant was added. Five minutes later, 2 volumes of ice-cooled phosphate buffer was added to arrest the reaction. The cells were removed by centrifugation at 1,100 rpm for 5 minutes. The supernatant was assayed for β-glucuronidase activity as an index of lysosomal enzymes. Separately, the total β-glucuronidase activity contained in the polymorphonuclear leukocyte was measured. Thus, liberation rates of lysosomal enzymes were determined as percentages of […]. Inhibition rates were calculated in percentage according to the following equation:
% Inhibition=(1-T/C) ×100
wherein T and C represent the liberation rates (%) of lysosomes for the treated and control groups, respectively.

mast cells [4] = assay: release of histamine from mast cells stimulated with compound 48/80; format: cell-based, male Wistar rat; settings: for Histamine Release: control (0.1% DMSO) 62.42
Protocol: Such histamine release can also be caused by addition of a synthetic stimulant compound 48/80, ATP (adenosine triphosphate), to mast cells.
Thus, mast cells were collected from the peritoneal cavity of a male Wistar rat of 400 to 450 g in body weight according to conventional procedures. The mast cells (5×10^4) were incubated in Krebs-Ringer buffer (pH 7.4) containing an amount of sarcophytol-A for 10 minutes. The compound 48/80 (100 ng) was added as a stimulant. After incubation for further 10 minutes, cells were removed by centrifugation. Histamine in the supernatant was quantitatively measured according to Shore et al. method: J. Phar. Exp. Ther., 127, 182-186 (1959). Total histamine contained in the mast cells was also measured. Inhibition rates (%) are calculated according to the following equation: […]
wherein T and C represent the amount of histamine released from mast cells after the treatment with the drug, and the total amount contained in the mast cells, respectively.

mast cells [5] = assay: release of histamine from mast cells stimulated with protein extracted from the cuticle of ascarids (IgE antigen); format: cell-based, rat; settings: preincubated before addition of protein extracted from the cuticle of ascarids
[6] = 33 mg/kg oral, 1 h before carrageenin

SMILES: COc1ccc2c(c1)c(CC(=O)O)c(C)n2C(=O)c1ccc(Cl)cc1 [Indomethacin, reference compound]
- % Inhibition (edema), 2 Hours ([1]; 10 mg/kg oral, **p<0.01 vs control): 43.5 ± 3.5%
- % Inhibition (edema), 3 Hours ([1]; 10 mg/kg oral, ***p<0.001 vs control): 43.7 ± 3.0%

SMILES: O=C(O)c1cc(=O)c2c(OCC(O)COc3cccc4oc(C(=O)O)cc(=O)c34)cccc2o1 [cromoglycate]
- degranulation of mast cells (in words) (mast cells [2]): inhibits degranulation of mast cells

- liberation of lysosomal enzymes (in words) ([3]; preincubated before addition of the stimulant FMLP): positively inhibited
SMILES: C/C1=C\C=C(\C(C)C)[C@@H](O)C/C(C)=C/CC/C(C)=C/CC1 [Sarcophytol-A]
- % Inhibition (edema), 2 Hours [1, 6]: -3.0 ± 6.5%
- % Inhibition (edema), 3 Hours [1, 6]: 2.4 ± 8.6%
- % Inhibition (edema), 2 Hours ([1]; 100 mg/kg oral, 1 h before carrageenin): 24.4 ± 7.8%
- % Inhibition (edema), 3 Hours ([1]; 100 mg/kg oral, 1 h before carrageenin, **p<0.01 vs control): 26.9 ± 6.9%
- Liberation (%) of lysosomal enzymes ([3]; 4 μM, FMLP 0.1 μM): 29.4%
- Liberation (%) of lysosomal enzymes ([3]; 11 μM, FMLP 0.1 μM): 27.2%
- Liberation (%) of lysosomal enzymes ([3]; 33 μM, FMLP 0.1 μM): 26.0%
- Liberation (%) of lysosomal enzymes ([3]; 100 μM, FMLP 0.1 μM): 13.1%
- inhibition at 4 µM ([3]; Rattus norvegicus, Leukocyte, 4 μM, FMLP 0.1 μM, read-out: Inhibition (%) of lysosome liberation): 8.1%
- inhibition at 11 µM ([3]; Rattus norvegicus, Leukocyte, 11 μM, FMLP 0.1 μM, read-out: Inhibition (%) of lysosome liberation): 15.1%
- inhibition at 33 µM ([3]; Rattus norvegicus, Leukocyte, 33 μM, FMLP 0.1 μM, read-out: Inhibition (%) of lysosome liberation): 18.8%
- inhibition at 100 µM ([3]; Rattus norvegicus, Leukocyte, 100 μM, FMLP 0.1 μM, read-out: Inhibition (%) of lysosome liberation): 59%
- Histamine Release (mast cells [4]; 4 μM, compound 48/80 100 ng): 65.32 Fluorescence Intensity
- Histamine Release (mast cells [4]; 11 μM, compound 48/80 100 ng): 59.72 Fluorescence Intensity
- Histamine Release (mast cells [4]; 33 μM, compound 48/80 100 ng): 55.72 Fluorescence Intensity
- Histamine Release (mast cells [4]; 100 μM, compound 48/80 100 ng): 41.45 Fluorescence Intensity
- inhibition at 4 µM (mast cells [4]; Rattus norvegicus, Mast cell, 4 μM, compound 48/80 100 ng): -4.6%
- inhibition at 11 µM (mast cells [4]; Rattus norvegicus, Mast cell, 11 μM, compound 48/80 100 ng): 4.3%
- inhibition at 33 µM (mast cells [4]; Rattus norvegicus, Mast cell, 33 μM, compound 48/80 100 ng): 10.7%
- inhibition at 100 µM (mast cells [4]; Rattus norvegicus, Mast cell, 100 μM, compound 48/80 100 ng): 33.6%
- release of histamine (in words) (mast cells [4]; preincubated before addition of stimulant compound 48/80): positively inhibited
- release of histamine (in words) (mast cells [5]): positively inhibited
